Laboratory results taken from article PMC3826719, “Impact of Polymorphic Variants on the Molecular Pharmacology of the Two-Agonist Conformations of the Human β1-Adrenoceptor” (PLoS ONE, 2013).
Like-named read-outs stand apart in the source and are kept apart here.

Key:
[1] = system: endogenous P2y2 receptors; test: 3H-inositol phosphate accumulation, positive controls; assay type: cell-based, Chinese Hamster; conditions: 100 µM
Method: Cells were grown to confluence in clear plastic tissue culture treated 24-well plates containing ^3H-myo-inositol (4 µCi/ml). Cells were washed then incubated for 30 minutes in 1 ml of serum free media containing 20 mM LiCl (37°C, 5% CO2). Agonists (in 10 µl) were then added and the incubation continued for 1 hour. All reagents were then removed and 1 ml of cold (−20°C) methanol/0.12M HCl (1∶1, v/v) added to each well. […] Total ^3H-inositol phosphate levels were determined by liquid scintillation counting. 100 µM ATP and 100 µM UTP was used as positive controls.

[2] = target: T1, human β1-adrenoceptor polymorphic variant Ser49/Arg389 (Homo sapiens, UniProt P08588, G389R); test: 3H-cAMP accumulation, Ser49/Arg389; assay type: cell-based; design: expressed in transfected cells; pcDNA3.1); conditions: for Emax: read-out: % isop (% isoprenaline maximal response); for Log EC50 Site 2 / EC50: biphasic cAMP response; for EC50: read-out: Log EC50 Site 1 (converted)
Method: (§1) Cells were grown to confluence in clear plastic tissue culture treated 24-well plates and ^3H-cAMP accumulation performed as previously described. Briefly, cells pre-labelled with ^3H-adenine by incubation for 2 hours with 2 µCi/ml ^3H-adenine in serum-free media (0.5 ml per well). The cells were washed, then 1 ml serum-free media containing 1 mM IBMX (3-isobutyl-1-methylxanthine) was added to each well and the cells incubated for 15 minutes. Agonists (in 10 µl serum-free media) were added to each well and the plates incubated for 5 hours in order to maximise the responses. The assay was terminated by adding 50 µl concentrated HCl per well, the plates frozen, thawed and ^3H-cAMP separated from other ^3H-nucleotides by sequential Dowex and alumina column chromatography. […] Where pertussis toxin (PTX) was used, cells were incubated in the 24 well plates with PTX at 100 ng/ml for 24 hours before experimentation.
(§2) The affinities of antagonists (KD values, Table 3) were calculated from the shift of the agonist concentration response curve in the presence of a fixed concentration of antagonist using equation 5: [drawing 5] (5) where DR (dose ratio) is the ratio of the agonist concentration required to stimulate an identical response in the presence and absence of a fixed concentration of antagonist [B].

[3] = target: T2, human β1-adrenoceptor polymorphic variant Gly49/Gly389 (Homo sapiens, UniProt P08588, S49G); test: 3H-cAMP accumulation, Gly49/Gly389; assay type: cell-based; design: expressed in transfected cells; pcDNA3.1); conditions: for Emax: read-out: % isop (% isoprenaline maximal response); for EC50 / Log EC50 Site 2: biphasic cAMP response; for EC50: read-out: Log EC50 Site 1 (converted)
Method: as §1, §2

[4] = target: T3, human wildtype β1-adrenoceptor (Ser49/Gly389) (Homo sapiens, UniProt P08588); test: 3H-cAMP accumulation, wildtype; assay type: cell-based; design: expressed in transfected cells; conditions: for Emax: read-out: % isop (% isoprenaline maximal response); for Log EC50 Site 2 / EC50: biphasic cAMP response; for EC50: read-out: Log EC50 Site 1 (converted)
Method: as §1, §2

[5] = target: T1, human β1-adrenoceptor polymorphic variant Ser49/Arg389; test: cell-based; conditions: Log KD
Method: (§3) The cells were washed twice with 200 µl 4°C phosphate buffered saline, 100 µl Microscint 20 was added to each well, and the plates counted on a Topcount at 21°C for 2 minutes per well.
(§4) All data points were performed in triplicate and each 96-well plate also contained 6 determinations of total and non-specific binding.

[6] = target: T3, human wildtype β1-adrenoceptor (Ser49/Gly389); test: cell-based; conditions: Log KD
Method: as §3, §4

[7] = target: T2, human β1-adrenoceptor polymorphic variant Gly49/Gly389; test: cell-based; conditions: Log KD
Method: as §3, §4

[8] = system: ERK1/2 MAPKinase activation; test: Alphascreen Surefire MAPKinase (pERK1/2) assay, positive control; assay type: cell-based, Chinese Hamster; conditions: 1 µM, 30 minutes
Method: Extracellular-signal-regulated kinases ERK1/2 activation was measured using a Surefire Alphascreen pERK1/2 kit as per manufacturer's instructions. Briefly, cells were grown to confluence in clear plastic tissue culture treated 96-well plates then serum starved by incubation in serum-free media for 24 hours before experimentation. Agonist in 20 µl was added to the well (1∶5 dilution in wells) and incubated for 5–60 minutes (37°C, 5% CO2). Reagents were then removed and 20 µl lysis buffer added to each well. Plates were frozen at −20°C overnight, thawed, and the assay then conducted as per manufacturer's instructions. After 2 hours in the dark, the plates were read on an Envision plate reader using standard Alphascreen settings. 1 µM phorbol ester was used as the positive control.

[9] = target: T4, human adenosine A1 receptor (Homo sapiens, UniProt P30542); test: 3H-cAMP accumulation in CHO-A1 cells, pertussis toxin control; assay type: cell-based; conditions: 100 ng/ml for 24 hours, CHO cells expressing the human adenosine A1 receptor
T4 construct: expressed in transfected cells
T4 sequence (P30542 1-326): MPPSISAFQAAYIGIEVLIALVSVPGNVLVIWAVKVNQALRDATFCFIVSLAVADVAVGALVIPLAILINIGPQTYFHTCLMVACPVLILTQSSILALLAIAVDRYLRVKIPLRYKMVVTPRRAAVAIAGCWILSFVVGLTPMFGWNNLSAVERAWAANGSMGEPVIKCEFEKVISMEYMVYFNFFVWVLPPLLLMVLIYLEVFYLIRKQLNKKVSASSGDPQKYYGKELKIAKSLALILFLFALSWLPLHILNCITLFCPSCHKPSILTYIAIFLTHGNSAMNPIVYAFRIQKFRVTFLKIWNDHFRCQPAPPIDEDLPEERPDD

[10] = cells expressing Gly49/Gly389 receptor
[11] = cells expressing Ser49/Arg389 β1-receptors
[12] = cells expressing wildtype Ser49/Gly389 receptor
[13] = 3H-cAMP accumulation, main stable WT Ser49/Gly389 cell line (WT original), maximum defined by 10 µM isoprenaline

T2 sequence (P08588 whole entry S49G): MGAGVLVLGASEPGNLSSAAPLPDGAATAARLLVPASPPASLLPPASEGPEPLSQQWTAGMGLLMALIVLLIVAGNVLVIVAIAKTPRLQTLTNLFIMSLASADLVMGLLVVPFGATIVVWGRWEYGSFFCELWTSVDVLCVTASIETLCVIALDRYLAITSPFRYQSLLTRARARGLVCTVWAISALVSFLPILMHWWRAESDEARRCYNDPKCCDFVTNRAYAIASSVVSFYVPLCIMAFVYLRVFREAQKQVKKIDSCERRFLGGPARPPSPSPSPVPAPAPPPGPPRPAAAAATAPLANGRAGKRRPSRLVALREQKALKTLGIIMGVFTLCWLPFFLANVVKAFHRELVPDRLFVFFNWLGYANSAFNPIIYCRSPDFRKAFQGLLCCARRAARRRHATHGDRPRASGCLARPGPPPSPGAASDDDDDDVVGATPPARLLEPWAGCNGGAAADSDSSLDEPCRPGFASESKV
T1 sequence (P08588 whole entry G389R): as the sequence (P08588 whole entry S49G) above, with G49S, G389R counted along it
T3 sequence (P08588 whole entry): as the sequence (P08588 whole entry S49G) above, with G49S counted along it

## Nc1ncnc2c1ncn2[C@@H]1O[C@H](COP(=O)(O)OP(=O)(O)OP(=O)(O)O)[C@@H](O)[C@H]1O [ATP]
[1]; [10]
  3H-inositol phosphate accumulation response: 2.77±0.40 fold over basal
[1]; [11]
  3H-inositol phosphate accumulation response: 2.96±0.28 fold over basal
[1]; [12]
  3H-inositol phosphate accumulation response: 2.18±0.17 fold over basal

## CNC[C@H](O)c1ccc(O)c(O)c1 [Adrenaline]
[2]
  Emax: 91.6 ± 2.2%
[3]
  Emax: 95.9 ± 3.2%
[4]; [13]
  % isop (% isoprenaline maximal response): full agonists
[4]
  Emax: 96.4 ± 2.1%

## CC(C)NCC(O)COc1ccc(CC(N)=O)cc1 (stereo not shown) [Atenolol]
[2]; 3H-cAMP accumulation, main stable Ser49/Arg389 cell line (original), maximum defined by 10 µM isoprenaline
  Emax: 1.3 ± 0.2%
[3]; 3H-cAMP accumulation, main stable Gly49/Gly389 cell line (original), maximum defined by 10 µM isoprenaline
  Emax: 0%
[4]; [13]
  Emax: 0%

## CC(C)(Cc1c[nH]c2ccccc12)NCC(O)COc1ccccc1C#N (stereo not shown) [Bucindolol]
[5]; competition with 3H-CGP 12177, Ser49/Arg389 transiently transfected populations
  Kd: 1820 pM
[5]; competition with 3H-CGP 12177, additional stable Ser49/Arg389 cell line W81
  Kd: 275 pM
[5]; competition with 3H-CGP 12177, additional stable Ser49/Arg389 cell line W93
  Kd: 646 pM
[5]; competition with 3H-CGP 12177, whole cells, main stable CHO cell line Ser49/Arg389
  Kd: 347 pM
[2]; % maximum isoprenaline response for the overall biphasic response, main Ser49/Arg389 cell line
  % isoprenaline: 53.6±1.2%
[2]; % of the response occurring at site 1, main Ser49/Arg389 cell line
  % Site 1: 80.4±2.6%
[2]; Ser49/Arg389 Cell line W81
  % Site 1: 47.6 ± 3.3%
  Log EC50 Site 2: -6.22 ± 0.15
  EC50: 724 pM
[2]; Ser49/Arg389 Cell line W93
  % Site 1: 51.5 ± 4.0%
  Log EC50 Site 2: -7.50 ± 0.07
  EC50: 589 pM
[2]; main Ser49/Arg389 cell line
  Log EC50 Site 2: −6.98±0.19
  EC50: 447 pM
[2]; overall biphasic response, Ser49/Arg389 Cell line W81
  % isoprenaline: 34.8 ± 2.0%
[2]; overall biphasic response, Ser49/Arg389 Cell line W93
  % isoprenaline: 32.8 ± 1.1%
[6]; competition with 3H-CGP 12177, WT transiently transfected populations
  Kd: 1320 pM
[6]; competition with 3H-CGP 12177, additional stable WT cell line T3
  Kd: 1450 pM
[6]; competition with 3H-CGP 12177, additional stable WT cell line T88
  Kd: 355 pM
[6]; competition with 3H-CGP 12177, whole cells, main stable CHO cell line WT (Ser49/Gly389)
  Kd: 275 pM
[7]; competition with 3H-CGP 12177, Gly49/Gly389 transiently transfected populations
  Kd: 1580 pM
[7]; competition with 3H-CGP 12177, additional stable Gly49/Gly389 cell line V87
  Kd: 427 pM
[7]; competition with 3H-CGP 12177, whole cells, main stable CHO cell line Gly49/Gly389
  Kd: 339 pM
[3]; % maximum isoprenaline response for the overall biphasic response, main Gly49/Gly389 cell line
  % isoprenaline: 25.7±0.8%
[3]; % of the response occurring at site 1, main Gly49/Gly389 cell line
  % Site 1: 51.5±2.4%
[3]; Gly49/Gly389 Cell line V6
  % Site 1: 54.0 ± 2.7%
  EC50: 282 pM
[3]; Gly49/Gly389 Cell line V87
  % Site 1: 69.3 ± 7.5%
  Log EC50 Site 2: -7.34 ± 0.23
  EC50: 309 pM
[3]; main Gly49/Gly389 cell line
  Log EC50 Site 2: −7.45±0.11
  EC50: 417 pM
[3]; overall biphasic response, Gly49/Gly389 Cell line V6
  % isoprenaline: 27.5 ± 1.0%
[3]; overall biphasic response, Gly49/Gly389 Cell line V87
  % isoprenaline: 22.8 ± 1.1%
[4]; % maximum isoprenaline response for the overall biphasic response, main WT Ser49/Gly389 cell line
  % isoprenaline: 24.6±4.1%
[4]; % of the response occurring at site 1, main WT Ser49/Gly389 cell line
  % Site 1: 59.8±2.8%
[4]; WT cell line T3
  % Site 1: 75.6 ± 4.5%
  Log EC50 Site 2: -7.09 ± 0.15
  EC50: 708 pM
[4]; WT cell line T88
  % Site 1: 48.0 ± 4.2%
  Log EC50 Site 2: -7.46 ± 0.09
  EC50: 234 pM
[4]; main WT Ser49/Gly389 cell line
  Log EC50 Site 2: −7.53±0.05
  EC50: 347 pM
[4]; overall biphasic response, WT cell line T3
  % isoprenaline: 43.4 ± 2.0%
[4]; overall biphasic response, WT cell line T88
  % isoprenaline: 23.6 ± 2.4%

## NC[C@H](O)c1ccc(O)c(O)c1 [Noradrenaline]
[2]
  Emax: 96 ± 3%
[3]
  Emax: 99.1 ± 3.7%
[4]; [13]
  % isop (% isoprenaline maximal response): full agonists
[4]
  Emax: 95.5 ± 2%

## O=c1ccn([C@@H]2O[C@H](COP(=O)(O)OP(=O)(O)OP(=O)(O)O)[C@@H](O)[C@H]2O)c(=O)[nH]1 [UTP]
[1]; [10]
  3H-inositol phosphate accumulation response: 2.32±0.29 fold over basal
[1]; [11]
  3H-inositol phosphate accumulation response: 2.63±0.40 fold over basal
[1]; [12]
  3H-inositol phosphate accumulation response: 1.87±0.11 fold over basal

## CCCCCCCCCCCCCC(=O)O[C@@H]1[C@@H](C)[C@@]2(O)[C@@H](C=C(CO)C[C@]3(O)C(=O)C(C)=C[C@@H]23)[C@@H]2C(C)(C)[C@]12OC(C)=O [phorbol ester]
[8]; Gly49/Gly389 receptor cells
  MAPKinase maximum stimulation: 12.6±3.8 fold over basal
[8]; Ser49/Arg389 receptor cells
  MAPKinase maximum stimulation: 7.4±1.4 fold over basal
[8]; wildtype receptor cells
  MAPKinase maximum stimulation: 11.9±1.6 fold over basal

## pertussis toxin (PTX)
[2]; 100 ng/ml for 24 hours, Ser49/Arg389 receptor
  Effect of pre-incubation on the cimaterol or CGP 12177 3H-cAMP responses: no effect
[3]; 100 ng/ml for 24 hours, Gly49/Gly389 receptor
  Effect of pre-incubation on the cimaterol or CGP 12177 3H-cAMP responses: no effect
[9]
  Effect of pre-incubation on Gi-coupled inhibition of 3H-cAMP accumulation in response to cyclopentyladenosine (CPA): completely inhibited
[4]; 100 ng/ml for 24 hours, WT receptor
  Effect of pre-incubation on the cimaterol or CGP 12177 3H-cAMP responses: no effect
